According to patent US20240228535A1 (priority 2022, published 2024):

Molecular target: SARS2 coronavirus 3CL protease (Severe acute respiratory syndrome coronavirus 2, UniProt P0DTD1)
Assay: biochemical
Conditions: 5 nM enzyme, 30 min pre-incubation with compound, 15 μM peptide substrate, 4 h at room temperature; read-out: FRET Potency (nM); IC50 values in the SARS2 3CLPro FRET assay

Point of comparison: `CNC(=O)C(=O)[C@H](C[C@@H]1CCNC1=O)NC(=O)c1cc(C(F)(F)F)ccc1NC(=O)C1(C(F)(F)F)CC1` [Example 95, N-[(1S)-3-(methylamino)-2,3-dioxo-1-[[(3S)-2-oxopyrrolidin-3-yl]methyl]propyl]-5-(trifluoromethyl)-2-[[1-(trifluoromethyl)cyclopropane-carbonyl]amino]benzamide], IC50 44.7 nM. Against it:
- C[C@@H]1C[C@@H](C[C@H](NC(=O)c2cc(Cl)ccc2NC(=O)C2CC2C(F)(F)F)C(=O)C(=O)NC2CC2)C(=O)N1 (stereo partly drawn) [Example 98, 5-chloro-N-[(1S)-3-(cyclopropylamino)-1-[[(3S,5R)-5-methyl-2-oxo-pyrrolidin-3-yl]methyl]-2,3-dioxo-propyl]-2-[[2-(trifluoromethyl)cyclopropane-carbonyl]amino]benzamide] — 4.7-fold lower, 9.5 nM
- CNC(=O)C(=O)[C@H](C[C@@H]1C[C@@H](C)NC1=O)NC(=O)c1cc(Cl)c(Cl)cc1NC(=O)OC [Example 144, methyl N-[4,5-dichloro-2-[[(1S)-3-(methylamino)-1-[[(3S,5R)-5-methyl-2-oxo-pyrrolidin-3-yl]methyl]-2,3-dioxo-propyl]carbamoyl]phenyl] carbamate] — 8.4-fold lower, 5.3 nM
- CNC(=O)C(=O)[C@H](C[C@@H]1C[C@@H](C)NC1=O)NC(=O)c1cc(Cl)ccc1NC(=O)C1COC1 [Example 135] — 15-fold lower, 3 nM
- CNC(=O)C(=O)[C@H](C[C@@H]1C[C@@H](C)NC1=O)NC(=O)c1cc(Cl)ccc1NC(=O)C1CCCC(F)(F)C1 (single isomer, unassigned) [Example 198] — 8.1-fold lower, 5.5 nM
- C[C@@H]1C[C@@H](C[C@H](NC(=O)c2cc(Cl)ccc2NC(=O)c2cc(C(F)(F)F)ccn2)C(=O)C(=O)NC2CC2)C(=O)N1 [Example 86, N-[4-chloro-2-[[(1S)-3-(cyclopropylamino)-1-[[(3S,5R)-5-methyl-2-oxo-pyrrolidin-3-yl]methyl]-2,3-dioxo-propyl]carbamoyl]phenyl]-4-(trifluoromethyl)pyridine-2-carboxamide] — 6.6-fold lower, 6.8 nM
- CC(C(=O)Nc1ccc(Cl)cc1C(=O)N[C@@H](C[C@@H]1C[C@@H](C)NC1=O)C(=O)C(=O)NC1CC1)c1cscn1 (stereo partly drawn) [Example 89, 5-chloro-N-[(1S)-3-(cyclopropylamino)-1-[[(3S,5R)-5-methyl-2-oxo-pyrrolidin-3-yl]methyl]-2,3-dioxo-propyl]-2-(2-thiazol-4-ylpropanoylamino)benzamide] — 4.4-fold lower, 10.1 nM
- C[C@@H]1C[C@@H](C[C@H](NC(=O)c2cc(Cl)ccc2NC(=O)OC2CC2)C(=O)C(=O)NC2CC2)C(=O)N1 [Example 160, cyclopropyl N-[4-chloro-2-[[(1S)-3-(cyclopropylamino)-1-[[(3S,5R)-5-methyl-2-oxo-pyrrolidin-3-yl]methyl]-2,3-dioxo-propyl]carbamoyl]phenyl] carbamate] — 5.1-fold lower, 8.8 nM
- CNC(=O)C(=O)[C@H](C[C@@H]1C[C@@H](C)NC1=O)NC(=O)c1cc(Cl)ccc1NC(=O)C1CCCC1(F)F (stereo partly drawn) [Example 185, 5-chloro-2-[(2,2-difluorocyclopentanecarbonyl)amino]-N-[(1S)-3-(methylamino)-1-[[(3S,5R)-5-methyl-2-oxo-pyrrolidin-3-yl]methyl]-2,3-dioxo-propyl]benzamide] — 5-fold lower, 9 nM
- C[C@@H]1C[C@@H](C[C@H](NC(=O)c2cc(Cl)ccc2NC(=O)CCC(F)(F)F)C(=O)C(=O)NCCO)C(=O)N1 [Example 117, 5-chloro-N-[(1S)-3-(2-hydroxyethylamino)-1-[[(3S,5R)-5-methyl-2-oxo-pyrrolidin-3-yl]methyl]-2,3-dioxo-propyl]-2-(4,4,4-trifluorobutanoylamino) benzamide] — 4.8-fold lower, 9.3 nM
- C[C@@H]1C[C@@H](C[C@H](NC(=O)c2cc(Cl)ccc2NC(=O)C2(CC(F)(F)F)CC2)C(=O)C(=O)NC2CC2)C(=O)N1 [Example 62] — 5.9-fold lower, 7.6 nM
- CNC(=O)C(=O)[C@H](C[C@@H]1CCNC1=O)NC(=O)c1cc(Cl)ccc1NC(=O)OC1(C)CC1 [Example 138, (1-methylcyclopropyl) N-[4-chloro-2-[[(1S)-3-(methylamino)-2,3-dioxo-1-[[(3S)-2-oxopyrrolidin-3-yl]methyl]propyl]carbamoyl]phenyl]carbamate] — 2.4-fold lower, 18.6 nM
- C[C@@H]1C[C@@H](C[C@H](NC(=O)c2c(NC(=O)c3ccnc(C(F)(F)F)c3)cc(F)c(F)c2F)C(=O)C(=O)NC2CC2)C(=O)N1 [Example 233, N-[2-[[(1S)-3-(cyclopropylamino)-1-[[(3S,5R)-5-methyl-2-oxo-pyrrolidin-3-yl]methyl]-2,3-dioxo-propyl]carbamoyl]-3,4,5-trifluoro-phenyl]-2-(trifluoromethyl)pyridine-4-carboxamide] — within 1.5-fold, 44 nM
- CNC(=O)C(=O)[C@H](C[C@@H]1CCNC1=O)NC(=O)c1cc(Cl)ccc1NC(=O)OC1CCC1 [Example 137, cyclobutyl N-[4-chloro-2-[[(1S)-3-(methylamino)-2,3-dioxo-1-[[(3S)-2-oxopyrrolidin-3-yl]methyl]propyl]carbamoyl]phenyl]carbamate] — 8.3-fold lower, 5.4 nM
- CNC(=O)C(=O)[C@H](C[C@@H]1CCNC1=O)NC(=O)c1cc(Cl)ccc1NC(=O)OC [Example 106] — 10-fold lower, 4.3 nM
- CNC(=O)C(=O)[C@H](C[C@@H]1C[C@@H](C)NC1=O)NC(=O)c1cc(Cl)ccc1NC(=O)CCC(F)(F)F [Example 178, 5-chloro-N-[(1S)-3-(methylamino)-1-[[(3S,5R)-5-methyl-2-oxo-pyrrolidin-3-yl]methyl]-2,3-dioxo-propyl]-2-(4,4,4-trifluorobutanoylamino) benzamide] — 6.4-fold lower, 7 nM
- CNC(=O)C(=O)[C@H](C[C@@H]1C[C@@H](C)NC1=O)NC(=O)c1cc(F)c(Cl)cc1NC(=O)OC1CC1 [Example 155, cyclopropyl N-[5-chloro-4-fluoro-2-[[(1S)-3-(methylamino)-1-[[(3S,5R)-5-methyl-2-oxo-pyrrolidin-3-yl]methyl]-2,3-dioxo-propyl]carbamoyl]phenyl] carbamate] — within 1.5-fold, 30.4 nM
- CNC(=O)C(=O)[C@H](C[C@@H]1C[C@@H](C)NC1=O)NC(=O)c1ccccc1NC(=O)OC [Example 103, methyl N-[2-[[(1S)-3-(methylamino)-1-[[(3S,5R)-5-methyl-2-oxo-pyrrolidin-3-yl]methyl]-2,3-dioxo-propyl]carbamoyl]phenyl] carbamate] — 1.9-fold higher, 86.2 nM
- CNC(=O)C(=O)[C@H](C[C@@H]1C[C@@H](C)NC1=O)NC(=O)c1cc(Cl)ccc1NC(=O)c1ccc(C(F)(F)F)nc1 [Example 76, N-[4-chloro-2-[[(1S)-3-(methylamino)-1-[[(3S,5R)-5-methyl-2-oxo-pyrrolidin-3-yl]methyl]-2,3-dioxo-propyl]carbamoyl]phenyl]-6-(trifluoromethyl)pyridine-3-carboxamide] — 8.4-fold lower, 5.3 nM
- COC(=O)Nc1ccc(Cl)cc1C(=O)N[C@@H](C[C@@H]1C[C@@H](C)NC1=O)C(=O)C(N)=O [Example 107, methyl N-[2-[[(1S)-3-amino-1-[[(3S,5R)-5-methyl-2-oxo-pyrrolidin-3-yl]methyl]-2,3-dioxo-propyl]carbamoyl]-4-chloro-phenyl]carbamate] — 3.5-fold lower, 12.6 nM
- CNC(=O)C(=O)[C@H](C[C@@H]1C[C@@H](C)NC1=O)NC(=O)c1cc(Cl)c(F)cc1NC(=O)C1(CC(F)(F)F)CC1 [Example 214, 5-chloro-4-fluoro-N-[(1S)-3-(methylamino)-1-[[(3S,5R)-5-methyl-2-oxo-pyrrolidin-3-yl]methyl]-2,3-dioxo-propyl]-2-[[1-(2,2,2-trifluoroethyl)cyclopropane-carbonyl]amino]benzamide] — 6.6-fold lower, 6.8 nM
- C[C@@H]1C[C@@H](C[C@H](NC(=O)c2cc(Cl)ccc2NC(=O)[C@H](C)CC(F)(F)F)C(=O)C(=O)NC2CC2)C(=O)N1 [Example 209, 5-chloro-N-[(1S)-3-(cyclopropylamino)-1-[[(3S,5R)-5-methyl-2-oxo-pyrrolidin-3-yl]methyl]-2,3-dioxo-propyl]-2-[[(2R)-4,4,4-trifluoro-2-methyl-butanoyl]amino]benzamide] — 4.6-fold lower, 9.8 nM
- C[C@@H]1C[C@@H](C[C@H](NC(=O)c2cc(Cl)ccc2NC(=O)C23CC(F)(C2)C3)C(=O)C(=O)NC2CC2)C(=O)N1 [Example 54, N-[4-chloro-2-[[(1S)-3-(cyclopropylamino)-1-[[(3S,5R)-5-methyl-2-oxo-pyrrolidin-3-yl]methyl]-2,3-dioxo-propyl]carbamoyl]phenyl]-3-fluoro-bicyclo[1.1.1]pentane-1-carboxamide] — 5.5-fold lower, 8.2 nM
- CO[C@H](C)C(=O)Nc1ccc(Cl)cc1C(=O)N[C@@H](C[C@@H]1C[C@@H](C)NC1=O)C(=O)C(=O)NC1CC1 [Example 164, 5-chloro-N-[(1S)-3-(cyclopropylamino)-1-[[(3S,5R)-5-methyl-2-oxo-pyrrolidin-3-yl]methyl]-2,3-dioxo-propyl]-2-[[(2R)-2-methoxypropanoyl]amino] benzamide] — 9.3-fold lower, 4.8 nM
- C[C@@H]1C[C@@H](C[C@H](NC(=O)c2cc(Cl)ccc2NC(=O)CCC(F)(F)F)C(=O)C(=O)NC2CC2)C(=O)N1 [Example 3, 5-chloro-N—((S)-4-(cyclopropylamino)-1-((3S,5R)-5-methyl-2-oxopyrrolidin-3-yl)-3,4-dioxobutan-2-yl)-2-(4,4,4-trifluorobutanamido)benzamide] — 6.5-fold lower, 6.9 nM
- CNC(=O)C(=O)[C@H](C[C@@H]1C[C@@H](C)NC1=O)NC(=O)c1cc(F)c(Cl)cc1NC(=O)OC [Example 134, methyl N-[5-chloro-4-fluoro-2-[(1S)-3-(methylamino)-1-[[(3S,5R)-5-methyl-2-oxo-pyrrolidin-3-yl]methyl]-2,3-dioxo-propyl]carbamoyl]phenyl] carbamate] — 1.6-fold lower, 28.2 nM
- C[C@@H]1C[C@@H](C[C@H](NC(=O)c2cc(Cl)ccc2NC(=O)[C@@H]2CN(C)C(=O)N2C)C(=O)C(=O)NC2CC2)C(=O)N1 [Example 212, (4S)-N-[4-chloro-2-[[(1S)-3-(cyclopropylamino)-1-[[(3S,5R)-5-methyl-2-oxo-pyrrolidin-3-yl]methyl]-2,3-dioxo-propyl]carbamoyl]phenyl]-1,3-dimethyl-2-oxo-imidazolidine-4-carboxamide] — 8-fold lower, 5.6 nM
- CNC(=O)C(=O)[C@H](C[C@@H]1C[C@@H](C)NC1=O)NC(=O)c1nc(Cl)ccc1NC(=O)OC [Example 113] — 29-fold higher, 1290 nM
